ChEMBL document CHEMBL1201862, “PubChem BioAssay data set” (2004)
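Dose response: 5 concentrations. Exposure: 48 h. Format: 96-well plates. Endpoint: linear interpolation; highest concentration if not reached. Abbreviation: GI50, concentration required for 50% inhibition of growth.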 The source made the active and inactive calls. Cut-off read from the data, not from the text of the source: active = GI50 up to about 1.1 µM and inactive = higher.

How the values were obtained:
Assay in all cases: DTP human tumour cell line panel, 48 h
[1] = system: A498
[2] = system: DMS-273
[3] = system: LOX IMVI
[4] = system: MOLT-4
[5] = system: UACC-257
[6] = system: DLD-1
[7] = system: NCI-H460
[8] = system: SNB-75
[9] = system: SNB-78
[10] = system: SF-539
[11] = system: SW-620
[12] = system: SNB-19
[13] = system: SK-MEL-28
[14] = system: OVCAR-5
[15] = system: RPMI-8226
[16] = system: KM12
[17] = system: UACC-62
[18] = system: UO-31
[19] = system: HCT-116
[20] = system: SK-OV-3
[21] = system: M14
[22] = system: CCRF-CEM
[23] = system: TK-10
[24] = system: OVCAR-3
[25] = system: Malme-3M
[26] = system: COLO 205
[27] = system: OVCAR-4
[28] = system: HOP-18
[29] = system: RXF 393
[30] = system: DMS-114
[31] = system: KM-20L2
[32] = system: HCC 2998
[33] = system: CAKI-1
[34] = system: OVCAR-8
[35] = system: NCI-H226
[36] = system: HL-60
[37] = system: A549
[38] = system: U-251
[39] = system: NCI-H23
[40] = system: SK-MEL-2
[41] = system: LXFL 529
[42] = system: HOP-92
[43] = system: SF-268
[44] = system: EKVX
[45] = system: HT-29
[46] = system: HCT-15
[47] = system: ACHN
[48] = system: SF-295
[49] = system: 786-0
[50] = system: IGROV-1
[51] = system: XF498
[52] = system: K562
[53] = system: SK-MEL-5
[54] = system: M19-MEL
[55] = system: NCI-H522
[56] = system: HOP-62
[57] = system: SN12C
[58] = system: SR

In the case of `COc1cc2c(cc1O)[C@H](C)C(c1ccccc1OC)O2` (some centres not stated), the GI50 [1] is reported as 4.49 µM (inactive), the GI50 [2] is reported as 2.67 µM (inactive) and the GI50 [3] is reported as 4.67 µM (inactive). For the same molecule, the GI50 [4] was 4.65 µM (inactive), the GI50 [5] was 18.2 µM (inactive) and the GI50 [6] was 4.75 µM (inactive). For the same molecule, the GI50 [7] was 2.08 µM (inactive), the GI50 [8] was 2.49 µM (inactive) and the GI50 [9] was 5.78 µM (inactive). The GI50 [10] was 5.11 µM (inactive), the GI50 [11] was 3.27 µM (inactive) and the GI50 [12] was 3.98 µM (inactive). For the same molecule, the GI50 [13] was 6.41 µM (inactive), the GI50 [14] was 75.2 µM (inactive) and the GI50 [15] was 2.64 µM (inactive). For the same molecule, the GI50 [16] was 3.87 µM (inactive), the GI50 [17] was 3.33 µM (inactive) and the GI50 [18] was 8.57 µM (inactive). The GI50 [19] was 3.86 µM (inactive), the GI50 [20] was 3.01 µM (inactive) and the GI50 [21] was 3.45 µM (inactive). The GI50 [22] was 4.21 µM (inactive), the GI50 [23] was 20.3 µM (inactive) and the GI50 [24] was 6.53 µM (inactive). For the same molecule, the GI50 [25] was 4.14 µM (inactive), the GI50 [26] was 6.97 µM (inactive) and the GI50 [27] was 8.32 µM (inactive). For the same molecule, the GI50 [28] was > 100 µM (inactive), the GI50 [29] was 10.9 µM (inactive) and the GI50 [30] was 2.8 µM (inactive). For the same molecule, the GI50 [31] was 5.07 µM (inactive), the GI50 [32] was 12.1 µM (inactive) and the GI50 [33] was 5.98 µM (inactive). For the same molecule, the GI50 [34] was 10.3 µM (inactive), the GI50 [35] was 22.4 µM (inactive) and the GI50 [36] was 2.6 µM (inactive). The GI50 [37] was 5.33 µM (inactive), the GI50 [38] was 2.34 µM (inactive) and the GI50 [39] was 6.31 µM (inactive). The GI50 [40] was 3.05 µM (inactive), the GI50 [41] was 8 µM (inactive) and the GI50 [42] was 8.2 µM (inactive). The GI50 [43] was 5.75 µM (inactive), the GI50 [44] was 6.87 µM (inactive) and the GI50 [45] was 6.7 µM (inactive). The GI50 [46] was 3.34 µM, the GI50 [47] was 4.34 µM (inactive) and the GI50 [48] was 3.2 µM (inactive). For the same molecule, the GI50 [49] was 5.61 µM (inactive), the GI50 [50] was 5.24 µM (inactive) and the GI50 [51] was 5.19 µM (inactive). The GI50 [52] was 2.81 µM (inactive), the GI50 [53] was 3.16 µM (inactive) and the GI50 [54] was 3.77 µM (inactive). For the same molecule, the GI50 [55] was 3.01 µM (inactive).
With `CCCN(CCC)C(=O)Cc1c2n(c3ccccc13)CCCc1ccccc1-2` the GI50 [2] was 11 µM (inactive), the GI50 [3] was 15.4 µM (inactive) and the GI50 [4] was 12.9 µM (inactive). For the same molecule, the GI50 [5] was 13.9 µM (inactive), the GI50 [6] was 13.6 µM (inactive) and the GI50 [7] was 15.6 µM (inactive). The GI50 [8] was 11.9 µM (inactive), the GI50 [9] was 12.3 µM (inactive) and the GI50 [10] was 14.9 µM (inactive). The GI50 [11] was 16.6 µM (inactive), the GI50 [12] was 14.6 µM (inactive) and the GI50 [13] was 16.3 µM (inactive). For the same molecule, the GI50 [56] was 16.4 µM (inactive), the GI50 [15] was 14.4 µM (inactive) and the GI50 [16] was 12.6 µM (inactive). For the same molecule, the GI50 [17] was 11 µM (inactive), the GI50 [18] was 14.1 µM (inactive) and the GI50 [19] was 13.5 µM (inactive). For the same molecule, the GI50 [20] was 15.2 µM (inactive), the GI50 [21] was 13.5 µM (inactive) and the GI50 [22] was 17.4 µM (inactive). For the same molecule, the GI50 [23] was 15.7 µM (inactive), the GI50 [24] was 16 µM (inactive) and the GI50 [25] was 13.9 µM (inactive). For the same molecule, the GI50 [26] was 15.5 µM (inactive), the GI50 [27] was 13.3 µM (inactive) and the GI50 [28] was 16.3 µM (inactive). For the same molecule, the GI50 [29] was 10.4 µM (inactive), the GI50 [30] was 11.7 µM (inactive) and the GI50 [31] was 14.4 µM (inactive). The GI50 [32] was 13.2 µM (inactive), the GI50 [33] was 14.8 µM (inactive) and the GI50 [57] was 15.5 µM (inactive). The GI50 [34] was 16.3 µM (inactive), the GI50 [35] was 15.1 µM (inactive) and the GI50 [36] was 15.4 µM (inactive). For the same molecule, the GI50 [37] was 13.8 µM (inactive), the GI50 [38] was 15.7 µM (inactive) and the GI50 [39] was 13 µM (inactive). For the same molecule, the GI50 [40] was 13.1 µM (inactive), the GI50 [41] was 13.6 µM (inactive) and the GI50 [42] was 4.2 µM (inactive). The GI50 [58] was 5.21 µM (inactive), the GI50 [43] was 15.1 µM (inactive) and the GI50 [44] was 15.1 µM (inactive). For the same molecule, the GI50 [45] was 13.2 µM (inactive), the GI50 [46] was 11.6 µM and the GI50 [47] was 12.6 µM (inactive). For the same molecule, the GI50 [48] was 10.6 µM (inactive), the GI50 [49] was 16.9 µM (inactive) and the GI50 [51] was 15.1 µM (inactive). For the same molecule, the GI50 [52] was 12.5 µM (inactive), the GI50 [53] was 14.3 µM (inactive) and the GI50 [54] was 14.8 µM (inactive). The GI50 [55] was 12.6 µM (inactive).
For `OC(c1ccccc1)(c1ccccc1)c1ccncc1`, the GI50 [2] was > 100 µM (inactive), the GI50 [3] was > 100 µM (inactive) and the GI50 [4] was > 100 µM (inactive). For the same molecule, the GI50 [5] was > 100 µM (inactive), the GI50 [6] was > 100 µM (inactive) and the GI50 [7] was > 100 µM (inactive). For the same molecule, the GI50 [8] was 36.6 µM (inactive), the GI50 [9] was > 100 µM (inactive) and the GI50 [10] was 59.4 µM (inactive). The GI50 [11] was > 100 µM (inactive), the GI50 [12] was > 100 µM (inactive) and the GI50 [13] was > 100 µM (inactive). For the same molecule, the GI50 [56] was > 100 µM (inactive), the GI50 [14] was > 100 µM (inactive) and the GI50 [15] was > 100 µM (inactive). For the same molecule, the GI50 [16] was > 100 µM (inactive), the GI50 [17] was > 100 µM (inactive) and the GI50 [18] was > 100 µM (inactive). The GI50 [19] was > 100 µM (inactive), the GI50 [20] was > 100 µM (inactive) and the GI50 [21] was > 100 µM (inactive). For the same molecule, the GI50 [22] was > 100 µM (inactive), the GI50 [23] was > 100 µM (inactive) and the GI50 [24] was > 100 µM (inactive). For the same molecule, the GI50 [25] was > 100 µM (inactive), the GI50 [26] was > 100 µM (inactive) and the GI50 [27] was > 100 µM (inactive). For the same molecule, the GI50 [28] was > 100 µM (inactive), the GI50 [29] was > 100 µM (inactive) and the GI50 [30] was > 100 µM (inactive). For the same molecule, the GI50 [31] was > 100 µM (inactive), the GI50 [32] was > 100 µM (inactive) and the GI50 [33] was > 100 µM (inactive). For the same molecule, the GI50 [57] was > 100 µM (inactive), the GI50 [34] was > 100 µM (inactive) and the GI50 [35] was > 100 µM (inactive). For the same molecule, the GI50 [36] was > 100 µM (inactive), the GI50 [37] was > 100 µM (inactive) and the GI50 [38] was > 100 µM (inactive). For the same molecule, the GI50 [39] was > 100 µM (inactive), the GI50 [40] was > 100 µM (inactive) and the GI50 [41] was > 100 µM (inactive). For the same molecule, the GI50 [42] was 74 µM (inactive), the GI50 [58] was > 100 µM (inactive) and the GI50 [43] was > 100 µM (inactive). For the same molecule, the GI50 [44] was > 100 µM (inactive), the GI50 [45] was > 100 µM (inactive) and the GI50 [46] was over 100 µM. The GI50 [47] was > 100 µM (inactive), the GI50 [48] was > 100 µM (inactive) and the GI50 [49] was 66.1 µM (inactive). For the same molecule, the GI50 [50] was > 100 µM (inactive), the GI50 [51] was > 100 µM (inactive) and the GI50 [52] was > 100 µM (inactive). For the same molecule, the GI50 [53] was > 100 µM (inactive), the GI50 [54] was > 100 µM (inactive) and the GI50 [55] was > 100 µM (inactive).
